In publication PMC3227451, “Structure-based development of novel sirtuin inhibitors” (Aging (Albany NY), 2011):

Experiments:
Sirt2 [1] = target: T1, Sirt2 (Homo sapiens, UniProt Q8IXJ6); experiment: Fluor-de-Lys peptide deacetylation assay, Sirt2; type: biochemical; settings: for Effect on the activity of Sirt2: 0.1 mM FdL-2 peptide, 0.5 mM NAD+
T1 sequence (Q8IXJ6 34-356): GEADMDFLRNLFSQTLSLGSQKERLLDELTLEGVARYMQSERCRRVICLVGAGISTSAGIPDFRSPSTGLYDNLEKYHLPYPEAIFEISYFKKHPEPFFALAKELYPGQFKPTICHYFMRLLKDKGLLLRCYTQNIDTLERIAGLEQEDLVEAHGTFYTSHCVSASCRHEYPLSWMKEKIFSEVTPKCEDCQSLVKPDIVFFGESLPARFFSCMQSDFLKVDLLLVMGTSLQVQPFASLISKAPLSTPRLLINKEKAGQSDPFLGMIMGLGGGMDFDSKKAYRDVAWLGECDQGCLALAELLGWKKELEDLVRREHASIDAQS
In short: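 Full-length human Sirt2 (E. coli-expressed, purified, His-tag removed) incubated 30 min at 37 °C with 0.1 mM FdL-2 peptide (QPK(acetyl-K)), 0.5 mM NAD+ and compound at 100 μM final in kit buffer. Values corrected with compound-only (no Sirtuin) controls; screen in duplicate, dose-response in triplicate.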

Sirt3 = target: T2, Sirt3 (Homo sapiens, UniProt Q9NTG7); experiment: Fluor-de-Lys peptide deacetylation assay, Sirt3; type: biochemical; settings: 100 μM compound; 0.1 mM FdL-2 peptide, 0.5 mM NAD+
T2 construct: Sirt3 residues 114-399; His-tag with linker comprising a TEV protease cleavage site (N); made in house; host or cells: E. coli
T2 sequence (Q9NTG7 114-399): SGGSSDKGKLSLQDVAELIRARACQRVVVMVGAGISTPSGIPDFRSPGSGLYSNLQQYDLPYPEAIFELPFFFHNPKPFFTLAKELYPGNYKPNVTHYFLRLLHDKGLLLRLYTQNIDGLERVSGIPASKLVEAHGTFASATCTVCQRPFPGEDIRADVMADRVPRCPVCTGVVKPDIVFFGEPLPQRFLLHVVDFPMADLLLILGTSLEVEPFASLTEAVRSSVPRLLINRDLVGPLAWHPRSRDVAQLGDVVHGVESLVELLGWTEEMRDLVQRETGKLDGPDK
In short: (§1)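 E. coli-expressed human Sirtuins with 0.5 mM NAD+ and 0.1 mM Fluor-de-Lys peptide: FdL-2 (QPK(acetyl-K)) for Sirt3, FdL-1 (RHK(acetyl-K)) for Sirt5. Compounds at 100 μM final; 30 min at 37 °C, then trypsin developer for 45 min at room temperature.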

Sirt5 [2] = target: T3, Sirt5 (Homo sapiens, UniProt Q9NXA8); experiment: Fluor-de-Lys peptide deacetylation assay, Sirt5; type: biochemical; settings: 100 μM compound; 0.1 mM FdL-1 peptide, 0.5 mM NAD+
T3 construct: Sirt5 residues 34-302; His-tag with linker comprising a TEV protease cleavage site (N); made in house
T3 sequence (Q9NXA8 34-302): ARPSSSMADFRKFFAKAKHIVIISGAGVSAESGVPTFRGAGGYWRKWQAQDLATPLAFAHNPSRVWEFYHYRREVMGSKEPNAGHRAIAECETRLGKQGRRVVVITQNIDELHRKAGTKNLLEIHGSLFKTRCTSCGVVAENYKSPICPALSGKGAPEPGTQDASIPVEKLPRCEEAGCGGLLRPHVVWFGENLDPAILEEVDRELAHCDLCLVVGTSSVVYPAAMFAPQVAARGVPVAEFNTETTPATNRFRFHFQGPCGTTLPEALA
In short: as §1

Sirt6 = target: T4, Sirt6 (Homo sapiens, UniProt Q8N6T7); experiment: Fluor-de-Lys peptide deacetylation assay, Sirt6; type: biochemical; settings: 100 μM compound; 0.1 mM FdL-1 peptide, 0.5 mM NAD+
T4 construct: Sirt6 residues 13-308; His-tag with linker comprising a TEV protease cleavage site (N, cleaved yes); made in house; host or cells: E. coli Rosetta2
T4 sequence (Q8N6T7 13-308): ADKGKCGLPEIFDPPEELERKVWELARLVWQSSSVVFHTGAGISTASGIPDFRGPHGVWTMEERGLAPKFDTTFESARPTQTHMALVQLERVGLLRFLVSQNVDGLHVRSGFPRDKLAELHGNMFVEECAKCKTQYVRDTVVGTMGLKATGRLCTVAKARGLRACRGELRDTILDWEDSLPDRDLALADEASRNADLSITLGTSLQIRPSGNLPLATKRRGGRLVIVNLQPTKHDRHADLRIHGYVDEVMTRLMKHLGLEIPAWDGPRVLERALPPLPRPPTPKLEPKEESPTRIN
In short: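 Fluor-de-Lys kit run with FdL-1 peptide RHK(acetyl-K), 0.1 mM, plus 0.5 mM NAD+. Compounds at 100 μM final, 30 min at 37 °C, then trypsin developer for 45 min at room temperature.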

Sirt1 [3] = target: T5, Sirt1 (Homo sapiens, UniProt Q96EB6); experiment: in vitro activity of Sirt1; type: biochemical; settings: concentration of 100 μM
T5 sequence (Q96EB6 1-747): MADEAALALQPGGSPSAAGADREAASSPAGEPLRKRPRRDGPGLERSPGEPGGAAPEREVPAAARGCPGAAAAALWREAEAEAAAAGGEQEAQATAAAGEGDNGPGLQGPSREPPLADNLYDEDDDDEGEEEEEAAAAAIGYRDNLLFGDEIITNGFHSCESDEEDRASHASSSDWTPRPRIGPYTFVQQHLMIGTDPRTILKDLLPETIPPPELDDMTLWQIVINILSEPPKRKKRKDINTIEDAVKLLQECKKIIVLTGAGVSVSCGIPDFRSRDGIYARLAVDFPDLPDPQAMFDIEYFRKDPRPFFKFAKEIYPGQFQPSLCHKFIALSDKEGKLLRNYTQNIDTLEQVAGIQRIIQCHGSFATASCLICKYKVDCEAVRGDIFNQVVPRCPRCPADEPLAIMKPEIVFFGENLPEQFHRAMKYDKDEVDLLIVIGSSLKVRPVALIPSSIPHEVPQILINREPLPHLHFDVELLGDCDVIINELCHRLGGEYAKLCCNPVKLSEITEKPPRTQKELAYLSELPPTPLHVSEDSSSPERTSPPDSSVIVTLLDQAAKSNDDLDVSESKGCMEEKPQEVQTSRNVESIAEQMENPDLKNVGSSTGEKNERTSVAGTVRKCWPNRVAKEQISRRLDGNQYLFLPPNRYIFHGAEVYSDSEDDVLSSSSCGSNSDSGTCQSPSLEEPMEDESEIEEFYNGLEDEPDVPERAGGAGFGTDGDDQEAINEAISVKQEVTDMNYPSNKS

HEK cells = experiment: Cytotoxicity testing on HEK cells
Sirt2 [4] = settings: cited from earlier work
Sirt1 [5] = settings: cited from earlier work
Sirt5 [6] = settings: cited from earlier work
yeast Sir2 = test system: yeast Sir2; parameters: method as in PMID 14534292; settings: cited from earlier work

Structure (SMILES) | Effect on the activity of Sirt2 (Sirt2 [1]; 100 μM compound) | Effect on the activity of Sirt3 (Sirt3) | Effect on the activity of Sirt5 (Sirt5 [2]) | Effect on the activity of Sirt6 (Sirt6) | also measured
C[C@]12CC[C@@H]3c4ccc(O)cc4CC[C@H]3[C@@H]1CCC2OC(=O)CCc1ccccc1 (stereo partly shown) [CSC8, 3-hydroxyestra-1,3,5(10)-trien-17-yl 3-phenylpropanoate] | inhibition (significant inhibitory effects (>25% loss of activity)) | --- (no such effect) | --- (no such effect) | --- (no such effect) | inhibition at 100 µM (Sirt2 [1]; 100 μM compound, read-out: Sirt2 inhibition in the screen): ~80%; IC50 (Sirt2 [1]; dose-response, substrate peptide concentration 100 μM, read-out: IC50 against Sirt2): 4.8 ± 0.5 µM; effect on the in vitro activity of Sirt1 (Sirt1 [3]): only a weak inhibitory effect; cytotoxicity (HEK cells): very high cytotoxicity
O=S(=O)(c1cccc(C(F)(F)F)c1)N1c2ccccc2-n2cccc2C1c1cccnc1 (stereo not shown) [CSC38, 4-(3-pyridinyl)-5-((3-(trifluoromethyl)phenyl)sulfonyl)-4,5-dihydropyrrolo[1,2-a]quinoxaline] | inhibition (significant inhibitory effects (>25% loss of activity)) | --- (no such effect) | activation | activation | –
OC1(C(O)(c2ccc(-c3ccccc3)cc2)c2ccc(-c3ccccc3)cc2)CCCCC1 [CSC39, 1-(di[1,1'-biphenyl]-4-yl(hydroxy)methyl)cyclohexanol] | --- (no such effect) | --- (no such effect) | --- (no such effect) | --- (no such effect) | –
NC(=O)C1CCCc2c1[nH]c1ccc(Cl)cc21 (stereo not shown) [EX-527] | – | – | – | – | potency against Sirt2 relative to Sirt1 (Sirt2 [4]): about two orders of magnitude lower potency; IC50 (Sirt1 [5]): […]; effect against Sirt5 (Sirt5 [6]): no effect
CC(NC(=O)c1ccccc1/N=C/c1c(O)ccc2ccccc12)c1ccccc1 (stereo not shown) [sirtinol] | – | – | – | – | IC50 (Sirt2 [4]; in vitro assay, read-out: IC50 against Sirt2): […]; weaker potency against Sirt1 than against Sirt2 (Sirt1 [5]): ~ 3 fold
O=C1CCc2c(ccc3ccccc23)O1 [splitomicin] | – | – | – | – | inhibition of yeast Sir2 (potency range) (yeast Sir2): micromolar inhibitors
